The results in this text go back to US6479657B1, “Crystalline 1-kestose and process for preparing the same” (Meiji Seika Kaisha, Ltd., priority 1995, dated 2002).

The test system of series [1] is enzyme having fructose transferase activity derived from a Penicillium microorganism. The series is described as follows: Properties of the novel Penicillium enzyme: substrate specificity, inhibition, kinetics. The format is biochemical, Penicillium roqueforti. On the procedure:
In the case of an enzyme derived from a Penicillium microorganism, the quantity of enzyme which can produce 1 μmol of 1-kestose in 1 minute at 50° C., pH 7.0, and a substrate (sucrose) concentration of 10 wt %; and The enzyme is prepared from a Penicillium microorganism, preferably from Penicillium roqueforti, specifically Penicillium roqueforti IAM7254 strain. The enzyme can be recovered from a culture by incubating the microorganism in a suitable medium (e.g., a medium containing 5 to 30% of sucrose, 1 to 10% of corn steep liquor, 0.05 to 0.3% of urea, 0.2 to 3.0 of potassium dihydrogenphosphate, and 0.01 to 0.1% of magnesium sulfate heptahydrate), at initial pH of 6.5 to 7.5 and a temperature of 25 to 30° C. for 2 to 5 days.

Series [2] deals with enzyme having fructose transferase activity derived from a Scopulariopsis microorganism. The series is described as follows: Properties of the novel Scopulariopsis enzyme: substrate specificity, inhibition, kinetics. The format is biochemical, Scopulariopsis brevicaulis. On the procedure:
In the case of an enzyme derived from a Scopulariopsis microorganism, the quantity of enzyme which can produce 1 μmol of 1-kestose in 1 minute at 40° C., pH 7.0, and a substrate (sucrose) concentration of 10 wt %.
The enzyme is prepared from a Scopulariopsis microorganism, preferably from Scopulariopsis brevicaulis, specifically Scopulariopsis brevicaulis IF04843 strain.
The enzyme can be recovered from a culture by incubating the microorganism in a suitable medium (e.g., a medium containing 3.0 to 10.0% of sucrose, 5 to 15% of corn steep liquor, 0.05 to 0.3% of urea, 0.2 to 3.0 of potassium dihydrogenphosphate, and 0.01 to 0.1% of magnesium sulfate heptahydrate), at initial pH of 6.5 to 7.5 and a temperature of 20 to 30° C. for 3 to 8 days. The enzyme is prepared preferably by recovering the fungus body from the culture using a centrifuge such as a basket type; suspending the recovered fungus body in a buffer at pH 7.0; obtaining a crude enzyme suspension by an ultrasonic treatment and a membrane treatment; then treating with anion exchange, gel filtration, chromatographic focusing, or other procedure on the crude enzyme suspension.
The freeze-dried fungus body powder prepared above was suspended in a McIlvaine buffer (pH 7.0), and ultrasonically crushed. The crushed cells were ultrafiltrated through a membrane filter (cutoff molecular weight: 100,000).

The nature of series [3]: Decomposition of 1-kestose in the decolorizing and desalting procedure. The conditions noted are these: activated carbon at 60° C. for 20 minutes, cation and anion exchange resin. The format is physicochemical. How it is done: The deactivated solution was filtered to remove any impurities such as the fungus body and the activated carbon. Then, activated carbon (Taiko activated carbon S-W50) was added to the filtrate at a rate of 0.5% of the solids content, and stirred at a temperature of 60° C. for 20 minutes to decolorize again. After filtrating to remove the activated carbon in the same manner as above, the solution was desalted through cation and anion exchange resin, then filtrated again to make a colorless and transparent 1-kestose solution (chromatographic sample).
The deactivated solution was filtered to remove any impurities such as the fungus body and the activated carbon. Then, activated carbon (Taiko activated carbon S-W50) was added to the filtrate at a rate of 0.5% per solids content, and stirred at a temperature of 60° C. for 20 minutes to decolorize again. After filtrating to remove the activated carbon in the same manner as above, the solution was desalted through cation and anion exchange resin, then filtrated again to make a colorless and transparent 1-kestose solution (chromatographic sample).
The deactivated solution was filtered to remove any impurities such as the fungus body and the activated carbon. […]

Regarding `OC[C@H]1O[C@H](O[C@H]2[C@H](O)[C@@H](O)C(O)O[C@@H]2CO)[C@H](O)[C@@H](O)[C@@H]1O` (mixture of isomers) [maltose], the “Substrate specificity (enzyme acts on sugar)” value (shortened to “Substrate specificity”) in series [1] and in series [2] was “not on” each time.
In the case of `OC[C@H]1O[C@@](CO)(OC[C@@]2(O[C@H]3O[C@H](CO)[C@@H](O)[C@H](O)[C@H]3O)O[C@H](CO)[C@@H](O)[C@@H]2O)[C@@H](O)[C@@H]1O` [Example 1-kestose, 1-kestose], the “Substrate specificity” value in series [1] and in series [2] was “effectively acts on” each time. In series [3], the “decomposition of 1-kestose” value is recorded as “hardly observed”.
Take `OC[C@H]1O[C@H](OC[C@H]2O[C@H](O[C@]3(CO)O[C@H](CO)[C@@H](O)[C@@H]3O)[C@H](O)[C@@H](O)[C@@H]2O)[C@H](O)[C@@H](O)[C@H]1O` [raffinose]: the “Substrate specificity” value in series [1] and in series [2] was “effectively acts on” each time.
For the compound `OC[C@H]1O[C@@](CO)(O[C@H]2O[C@H](CO)[C@@H](O)[C@H](O)[C@H]2O)[C@@H](O)[C@@H]1O` [sucrose], the “Substrate specificity” value in series [1] and in series [2] was “effectively acts on” each time.
With `O=C(CO)[C@@H](O[C@H]1O[C@H](CO)[C@@H](O)[C@H](O)[C@H]1O)[C@H](O)[C@H](O)CO` [turanose], the “Substrate specificity” value in series [1] and in series [2] was “not on” throughout.
